Reference: US20250223559A1, “AXIOLOID: A STEM CELL-BASED MODEL OF HUMAN AXIAL DEVELOPMENT” (KYOTO UNIVERSITY, priority 2022, published 2025)

System: human Axioloids
Experiment: scRNA-seq analysis of Axioloids (clusters, marker genes, differentially expressed genes)
Format: cell-based
Description: Axioloids were collected into wells of a 96-well plate and washed three times by transferring to another well filled with 0.1% BSA (SIGMA) in HBSS(-). Axioloids of the desired stage and number were then transferred to another well filled with 100 μl of enzyme P solution of the Neural Tissue Dissociation Kit (P) (Miltenyi Biotec) and incubated at 37° C. for 10 minutes. After adding 100 μl of 0.1% BSA in HBSS(-) Axioloids were dissociated by pipetting with an uncut P200 tip 20 times. The dissociated cells were filtered through Flowmi Cell Strainers with […] porosity (Merck) into a BSA-coated 2 ml tube (Eppendorf). Cells were washed twice in 1% BSA in HBSS(-) with centrifugation steps at 400×g for 6 minutes at room temperature. Cells were then resuspended in 1% BSA in HBSS(-) using a BSA-coated uncut-P200 tip and the concentration of the cell suspension was determined with hemocytometer. The cell suspension was subjected to library preparation using Chromium Next GEM Single Cell 3' Kit v3.1 (10× Genomics), aiming for a target cell recovery of 5000-10000. Library preparation was preformed following the instructions provided by the manufacturer 10X Genomics (CG000315 Rev B). The libraries were sequenced with NovaSeq 6000 Sequencing System (Illumina) using NovaSeq 6000 SP Reagent Kit v1.5 (100 Cycles) (Illumina, #20028401) and NovaSeq 6000 S1 Reagent Kit v1.5 (100 Cycles) (Illumina, #20028319) with the paired-end mode as described in the instructions by 10X Genomics (CG000315 Rev B). scRNA-seq data were first mapped to the human reference genome (hg38) to make matrices of UMI count for each gene and each cell using Cell Ranger (10X Genomics, version 6.0.1). Putative doublet clusters were removed using Scrublet (version 0.2.3) with the expected_doublet_rate set as 0.06^64. Then, the count data were imported into the Suerat package (version 4.0.3)^65 for the downstream analysis. […] The cell cycle scores and cell cycle phases were then determined as described before^66. […]

For `CC1=C(/C=C/C(C)=C/C=C/C(C)=C/C=O)C(C)(C)CCC1` [RAL, all trans-Retinal], the “segregation of SM and TB clusters” value (MG with vs without RA or RAL, 96 h and 120 h) was “clear segregation of the SM and TB clusters”, the “expression of TCF15, MEOX1, PAX3, PBX1, ZIC3, NR2F1, MEIS2” value (MG-embedded, exposed to RAL/RA) was “up-regulated” and the “MG-associated DEGs in SM (EMT genes, SFRP1, DKK1, FST, ID2, TFC15, PAX3)” value (addition of RA or RAL to MG) was “attenuated”.
